Columns and labels:
[1] = tested on: Saccharomyces eubayanus_SOA2; test: lag phase before growth; higher = slower start of growth; conditions: sulfur source concentration 200 µM; S. cerevisiae S288C/BY sul1Δ sul2Δ soa1Δ with transporter ortholog inserted at SOA1 locus; sulfur-free B medium, 4% glucose, pH 6.5, sole sulfur source
[2] = tested on: Saccharomyces uvarum_SOA2; test: maximal growth rate with compound as sole sulfur source (OD600 per h); higher = better growth / uptake of the sulfur source; conditions: S. cerevisiae S288C/BY sul1Δ sul2Δ soa1Δ with transporter ortholog inserted at SOA1 locus, sulfur-free B medium, 4% glucose, pH 6.5, sole sulfur source
[3] = tested on: Saccharomyces uvarum_SOA1; test: as above; conditions: S. cerevisiae S288C/BY sul1Δ sul2Δ soa1Δ with transporter ortholog inserted at SOA1 locus, sulfur-free B medium, 4% glucose, pH 6.5, sole sulfur source
[4] = tested on: Saccharomyces cerevisiae_SOA1; test: as above; conditions: S. cerevisiae S288C/BY sul1Δ sul2Δ soa1Δ with transporter ortholog inserted at SOA1 locus, sulfur-free B medium, 4% glucose, pH 6.5, sole sulfur source
[5] = tested on: Aspergillus nidulans_CBF80346; test: as above; conditions: S. cerevisiae S288C/BY sul1Δ sul2Δ soa1Δ with transporter ortholog inserted at SOA1 locus, sulfur-free B medium, 4% glucose, pH 6.5, sole sulfur source
[6] = tested on: Ogataea parapolymorpha_XP_013935289; test: as above; conditions: S. cerevisiae S288C/BY sul1Δ sul2Δ soa1Δ with transporter ortholog inserted at SOA1 locus, sulfur-free B medium, 4% glucose, pH 6.5, sole sulfur source
[7] = tested on: Saccharomyces eubayanus_SOA1; test: as above; conditions: S. cerevisiae S288C/BY sul1Δ sul2Δ soa1Δ with transporter ortholog inserted at SOA1 locus, sulfur-free B medium, 4% glucose, pH 6.5, sole sulfur source
[8] = tested on: Saccharomyces eubayanus_SOA2; test: as above; conditions: S. cerevisiae S288C/BY sul1Δ sul2Δ soa1Δ with transporter ortholog inserted at SOA1 locus, sulfur-free B medium, 4% glucose, pH 6.5, sole sulfur source
[9] = tested on: Aspergillus nidulans_XP_660563; test: as above; conditions: S. cerevisiae S288C/BY sul1Δ sul2Δ soa1Δ with transporter ortholog inserted at SOA1 locus, sulfur-free B medium, 4% glucose, pH 6.5, sole sulfur source
[10] = tested on: Metarhizium robertsii_XP_007823832; test: as above; conditions: S. cerevisiae S288C/BY sul1Δ sul2Δ soa1Δ with transporter ortholog inserted at SOA1 locus, sulfur-free B medium, 4% glucose, pH 6.5, sole sulfur source
[11] = tested on: Aspergillus nidulans_XP_661733; test: as above; conditions: S. cerevisiae S288C/BY sul1Δ sul2Δ soa1Δ with transporter ortholog inserted at SOA1 locus, sulfur-free B medium, 4% glucose, pH 6.5, sole sulfur source
[12] = tested on: Aspergillus nidulans_CBF74694; test: as above; conditions: S. cerevisiae S288C/BY sul1Δ sul2Δ soa1Δ with transporter ortholog inserted at SOA1 locus, sulfur-free B medium, 4% glucose, pH 6.5, sole sulfur source
[13] = tested on: Aspergillus nidulans (IAM 2006)_astA; test: lag phase before growth; higher = slower start of growth; conditions: S. cerevisiae S288C/BY sul1Δ sul2Δ soa1Δ with transporter ortholog inserted at SOA1 locus, sulfur-free B medium, 4% glucose, pH 6.5, sole sulfur source
[14] = tested on: Metarhizium robertsii_XP_007823832; test: as above; conditions: S. cerevisiae S288C/BY sul1Δ sul2Δ soa1Δ with transporter ortholog inserted at SOA1 locus, sulfur-free B medium, 4% glucose, pH 6.5, sole sulfur source
[15] = tested on: Fusarium oxysporum_ENH65823; test: as above; conditions: sulfur source concentration 200 µM; S. cerevisiae S288C/BY sul1Δ sul2Δ soa1Δ with transporter ortholog inserted at SOA1 locus; sulfur-free B medium, 4% glucose, pH 6.5, sole sulfur source
[16] = tested on: Aspergillus nidulans_XP_661711; test: as above; conditions: sulfur source concentration 200 µM; S. cerevisiae S288C/BY sul1Δ sul2Δ soa1Δ with transporter ortholog inserted at SOA1 locus; sulfur-free B medium, 4% glucose, pH 6.5, sole sulfur source
[17] = tested on: Aspergillus nidulans_XP_661733; test: as above; conditions: S. cerevisiae S288C/BY sul1Δ sul2Δ soa1Δ with transporter ortholog inserted at SOA1 locus, sulfur-free B medium, 4% glucose, pH 6.5, sole sulfur source
soa1 del = test: as above; conditions: sulfur source concentration 200 µM; S. cerevisiae S288C/BY sul1Δ sul2Δ soa1Δ with transporter ortholog inserted at SOA1 locus; sulfur-free B medium, 4% glucose, pH 6.5, sole sulfur source
[18] = tested on: Aspergillus nidulans_XP_681611; test: as above; conditions: sulfur source concentration 200 µM; S. cerevisiae S288C/BY sul1Δ sul2Δ soa1Δ with transporter ortholog inserted at SOA1 locus; sulfur-free B medium, 4% glucose, pH 6.5, sole sulfur source
[19] = tested on: Aspergillus nidulans_CBF80346; test: as above; conditions: sulfur source concentration 200 µM; S. cerevisiae S288C/BY sul1Δ sul2Δ soa1Δ with transporter ortholog inserted at SOA1 locus; sulfur-free B medium, 4% glucose, pH 6.5, sole sulfur source
[20] = tested on: Metarhizium robertsii_XP_007821441; test: as above; conditions: sulfur source concentration 200 µM; S. cerevisiae S288C/BY sul1Δ sul2Δ soa1Δ with transporter ortholog inserted at SOA1 locus; sulfur-free B medium, 4% glucose, pH 6.5, sole sulfur source
[21] = tested on: Ogataea parapolymorpha_XP_013932458; test: as above; conditions: sulfur source concentration 200 µM; S. cerevisiae S288C/BY sul1Δ sul2Δ soa1Δ with transporter ortholog inserted at SOA1 locus; sulfur-free B medium, 4% glucose, pH 6.5, sole sulfur source
[22] = tested on: Aspergillus nidulans_XP_660670; test: as above; conditions: sulfur source concentration 200 µM; S. cerevisiae S288C/BY sul1Δ sul2Δ soa1Δ with transporter ortholog inserted at SOA1 locus; sulfur-free B medium, 4% glucose, pH 6.5, sole sulfur source
[23] = tested on: Aspergillus nidulans_XP_660563; test: as above; conditions: sulfur source concentration 200 µM; S. cerevisiae S288C/BY sul1Δ sul2Δ soa1Δ with transporter ortholog inserted at SOA1 locus; sulfur-free B medium, 4% glucose, pH 6.5, sole sulfur source
[24] = tested on: Aspergillus nidulans_CBF74694; test: as above; conditions: sulfur source concentration 200 µM; S. cerevisiae S288C/BY sul1Δ sul2Δ soa1Δ with transporter ortholog inserted at SOA1 locus; sulfur-free B medium, 4% glucose, pH 6.5, sole sulfur source
[25] = tested on: Ogataea parapolymorpha_XP_013936897; test: as above; conditions: sulfur source concentration 200 µM; S. cerevisiae S288C/BY sul1Δ sul2Δ soa1Δ with transporter ortholog inserted at SOA1 locus; sulfur-free B medium, 4% glucose, pH 6.5, sole sulfur source
[26] = sulfur source concentration 200 µM
[27] = sulfur source concentration 40000 µM

SMILES: CCCCS(=O)(=O)O [Butanesulfonate]
- lag phase before growth [1]: 10.1 h
- maximal growth rate [2, 26]: 0.0878
- maximal growth rate [3, 26]: 0.0795
- maximal growth rate [4, 26]: 0.0882
- maximal growth rate [5, 26]: 0.00447
- maximal growth rate [6, 26]: 0.087
- maximal growth rate [7, 26]: 0.0734
- maximal growth rate [8, 26]: 0.0837
- maximal growth rate [9, 26]: 0.00657
- maximal growth rate [10, 26]: 0.0152
- maximal growth rate [11, 26]: 0.00595
- maximal growth rate [12, 26]: 0.00269

SMILES: CCS(=O)(=O)O [Ethanesulfonate]
- lag phase before growth [1]: 13.1 h
- maximal growth rate [2, 26]: 0.081
- maximal growth rate [3, 26]: 0.0735
- maximal growth rate [4, 26]: 0.076
- maximal growth rate [5, 26]: 0.00396
- maximal growth rate [6, 26]: 0.0784
- maximal growth rate [7, 26]: 0.0681
- maximal growth rate [8, 26]: 0.0754
- maximal growth rate [9, 26]: 0.00579
- maximal growth rate [10, 26]: 0.0141
- maximal growth rate [11, 26]: 0.00379
- maximal growth rate [12, 26]: 0.00278

SMILES: O=S(=O)(O)CO [Hydroxymethane sulfonate]
- lag phase before growth [13, 26]: 0.457 h
- lag phase before growth [1]: 23.8 h
- lag phase before growth [14, 26]: 4.31 h
- maximal growth rate [2, 26]: 0.107
- maximal growth rate [3, 26]: 0.109
- maximal growth rate [4, 26]: 0.121
- maximal growth rate [5, 26]: 0.00313
- maximal growth rate [6, 26]: 0.114
- maximal growth rate [7, 26]: 0.0972
- maximal growth rate [8, 26]: 0.0594
- maximal growth rate [9, 26]: 0.00603
- maximal growth rate [10, 26]: 0.038
- maximal growth rate [11, 26]: 0.00489
- maximal growth rate [12, 26]: 0.00325

SMILES: N[C@@H](CS(=O)(=O)O)C(=O)O [L-cysteic acid]
- lag phase before growth [15]: 7.6 h
- lag phase before growth [16]: 5.14 h
- lag phase before growth [14, 26]: 7.57 h
- lag phase before growth [17, 26]: 17.2 h
- maximal growth rate [2, 26]: 0.00261
- maximal growth rate [3, 26]: 0.00754
- maximal growth rate [4, 26]: 0.037
- maximal growth rate [5, 26]: 0.00644
- maximal growth rate [6, 26]: 0.035
- maximal growth rate [7, 26]: 0.00648
- maximal growth rate [8, 26]: 0.00291
- maximal growth rate [9, 26]: 0.00641
- maximal growth rate [10, 26]: 0.028
- maximal growth rate [11, 26]: 0.0304
- maximal growth rate [12, 26]: 0.003

SMILES: CSCC[C@H](N)C(=O)O [Methionine]
- lag phase before growth [15]: 5.35 h
- lag phase before growth (soa1 del): 4.14 h
- lag phase before growth [18]: 3.6 h
- lag phase before growth [13, 26]: 5.14 h
- lag phase before growth [16]: 4.47 h
- lag phase before growth [19]: 5.16 h
- lag phase before growth [20]: 4.5 h
- lag phase before growth [1]: 4.47 h
- lag phase before growth [21]: 3.88 h
- lag phase before growth [22]: 4.47 h
- lag phase before growth [23]: 3.48 h
- lag phase before growth [14, 26]: 4.38 h
- lag phase before growth [17, 26]: 4.49 h
- lag phase before growth [24]: 5.36 h
- lag phase before growth [25]: 2.97 h
- maximal growth rate [2, 26]: 0.138
- maximal growth rate [3, 26]: 0.131
- maximal growth rate [4, 26]: 0.145
- maximal growth rate [5, 26]: 0.139
- maximal growth rate [6, 26]: 0.13
- maximal growth rate [7, 26]: 0.129
- maximal growth rate [8, 26]: 0.127
- maximal growth rate [9, 26]: 0.13
- maximal growth rate [10, 26]: 0.138
- maximal growth rate [11, 26]: 0.136
- maximal growth rate [12, 26]: 0.138

SMILES: CCCS(=O)(=O)O [Propanesulfonate]
- lag phase before growth [1]: 14 h
- maximal growth rate [2, 26]: 0.0773
- maximal growth rate [3, 26]: 0.0748
- maximal growth rate [4, 26]: 0.0797
- maximal growth rate [5, 26]: 0.00331
- maximal growth rate [6, 26]: 0.0825
- maximal growth rate [7, 26]: 0.0691
- maximal growth rate [8, 26]: 0.0792
- maximal growth rate [9, 26]: 0.00627
- maximal growth rate [10, 26]: 0.0143
- maximal growth rate [11, 26]: 0.00555
- maximal growth rate [12, 26]: 0.00267

SMILES: O=S(=O)(O)O [sulfate]
- lag phase before growth [13, 26]: 6.92 h
- lag phase before growth [13, 27]: 7.29 h
- lag phase before growth [14, 26]: 8.36 h
- lag phase before growth [14, 27]: 11.7 h
- lag phase before growth [17, 27]: 39.2 h
- maximal growth rate [2, 26]: 0.00324
- maximal growth rate [2, 27]: 0.00336
- maximal growth rate [3, 26]: 0.0032
- maximal growth rate [3, 27]: 0.0989
- maximal growth rate [4, 26]: 0.00588
- maximal growth rate [4, 27]: 0.123
- maximal growth rate [5, 26]: 0.00472
- maximal growth rate [5, 27]: 0.00348
- maximal growth rate [6, 26]: 0.0777
- maximal growth rate [6, 27]: 0.124
- maximal growth rate [7, 26]: 0.00395
- maximal growth rate [7, 27]: 0.0997
- maximal growth rate [8, 26]: 0.00313
- maximal growth rate [8, 27]: 0.00349
- maximal growth rate [9, 26]: 0.00621
- maximal growth rate [9, 27]: 0.00638
- maximal growth rate [10, 26]: 0.0813
- maximal growth rate [10, 27]: 0.088
- maximal growth rate [11, 26]: 0.00457
- maximal growth rate [11, 27]: 0.0588
- maximal growth rate [12, 26]: 0.00273
- maximal growth rate [12, 27]: 0.00346

SMILES: O=S(O)O [sulfite]
- lag phase before growth [13, 26]: 6.93 h
- lag phase before growth [14, 26]: 8.25 h
- maximal growth rate [2, 26]: 0.0556
- maximal growth rate [3, 26]: 0.0915
- maximal growth rate [4, 26]: 0.12
- maximal growth rate [5, 26]: 0.00484
- maximal growth rate [6, 26]: 0.0989
- maximal growth rate [7, 26]: 0.0839
- maximal growth rate [8, 26]: 0.00564
- maximal growth rate [9, 26]: 0.00646
- maximal growth rate [10, 26]: 0.0855
- maximal growth rate [11, 26]: 0.0047
- maximal growth rate [12, 26]: 0.00286

From the supplement of paper PMC5303821, “Major sulfonate transporter Soa1 in Saccharomyces cerevisiae and considerable substrate diversity in its fungal family” (Nature Communications, 2017)
